# According to the supplement of paper PMC4862054:
# What was measured:
# Assay in all cases: normalised response (% of control), CellTiter-Glo; higher = more viable cells (100 = DMSO, 0 = benzethonium chloride kill control)
# Settings in all cases: incubation time: 72 h
# [1] = system: HCC1599
# Method in brief: (§1)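 Normalised signals at single concentrations make up the values. They come from breast cancer cell lines seeded (20 µl suspension) into 384-well plates with compound at 5 concentrations in 10-fold steps over a compound-specific 10,000-fold range, incubated 72 h, and read for CellTox Green fluorescence then CellTiter-Glo luminescence. Each plate was normalised to 0.1 % DMSO (100) and a positive kill control (0).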
# [2] = system: BT-549
# Method in brief: as §1
# [3] = system: CAL-51
# Method in brief: as §1
# [4] = system: SK-BR-3
# Method in brief: as §1
# [5] = system: DU-4475
# Method in brief: as §1
# [6] = system: HDQ-P1
# Method in brief: as §1
# [7] = system: Hs578T
# Method in brief: as §1
# [8] = system: MDA-MB-468
# Method in brief: as §1
# [9] = system: MDA-MB-231
# Method in brief: as §1
# [10] = system: MDA-MB-453
# Method in brief: as §1
# [11] = system: CAL-85-1
# Method in brief: as §1
# [12] = system: BT-474
# Method in brief: as §1
# [13] = system: HCC1937
# Method in brief: as §1
# [14] = system: MCF-10A
# Method in brief: as §1
# [15] = system: HCC1143
# Method in brief: as §1
# [16] = system: MFM-223
# Method in brief: as §1
# [17] = system: MDA-MB-436
# Method in brief: as §1
# [18] = system: CAL-120
# Method in brief: as §1
# [19] = system: CAL-148
# Method in brief: as §1
SMILES,normalised response [1] [%],normalised response [2] [%],normalised response [3] [%],normalised response [4] [%],normalised response [5] [%],normalised response [6] [%],normalised response [7] [%],normalised response [8] [%],normalised response [9] [%],normalised response [10] [%],normalised response [11] [%],normalised response [12] [%],normalised response [13] [%],normalised response [14] [%],normalised response [15] [%],normalised response [16] [%],normalised response [17] [%],normalised response [18] [%],normalised response [19] [%]
CC(C)(C)Cn1c(N)nc2ccc(-c3[nH]c(C(C)(C)C)nc3-c3ccc(F)cc3)nc21 (1 nM),104,103,117,104,98.1,101,95.4,102,99.3,110,99.9,103,105,109,104,106,101,98.8,110
CC(C)(C)Cn1c(N)nc2ccc(-c3[nH]c(C(C)(C)C)nc3-c3ccc(F)cc3)nc21 (10 nM),95.5,95.9,97.5,–,105,95.6,106,102,99.7,104,97.8,103,95.1,106,104,105,104,97.8,110
Cn1cc(C[C@@H](N)C(=O)O)c2ccccc21 [1-methyl-D-tryptophan] (0.5 nM),102,101,113,93,101,105,99.3,98,95.2,99.4,94.3,96.1,97.6,97.1,96.5,92.8,103,95.6,87.4
Cn1cc(C[C@@H](N)C(=O)O)c2ccccc21 [1-methyl-D-tryptophan] (5 nM),107,95.7,94.2,99.8,95.8,104,93.2,98.3,96.8,90.1,91.3,100,98.5,95.2,102,94.2,107,95.1,88.9
CC[C@H](CC#N)OC(=O)N[C@@H](C)c1cccc(NC(=O)Nc2ccc(-c3cnco3)c(OC)c2)c1 [AVN944] (1 nM),90.3,98.5,112,95.7,97.9,99.4,97.8,97.2,96.1,99.6,97,89.2,103,99.1,93.2,93.5,91.1,96.7,99.8
CC[C@H](CC#N)OC(=O)N[C@@H](C)c1cccc(NC(=O)Nc2ccc(-c3cnco3)c(OC)c2)c1 [AVN944] (10 nM),88.6,91.5,122,–,97.5,100,96.4,111,101,82.7,95.8,89.4,96,99.7,97.3,96.2,97.6,95,99.3
Cc1c(N)nc([C@H](CC(N)=O)NC[C@H](N)C(N)=O)nc1C(=O)N[C@H](C(=O)N[C@H](C)[C@@H](O)[C@H](C)C(=O)N[C@H](C(=O)NCCc1nc(-c2nc(C(=O)NCCC[S+](C)C)cs2)cs1)[C@@H](C)O)[C@@H](OC1OC(CO)C(O)C(O)C1OC1OC(CO)C(O)C(OC(N)=O)C1O)c1cnc[nH]1 (some centres not stated) [Bleomycin] (10 nM),97.7,87.6,97.5,106,98.1,97.6,99.8,98,96.3,104,96.1,95.7,93.3,100,98.9,101,94.2,97.3,85
Cc1cc2c(F)c(Oc3ncnn4cc(OC[C@@H](C)O)c(C)c34)ccc2[nH]1 [Brivanib] (1 nM),103,95.2,74.5,–,111,97.8,103,108,104,107,102,107,102,107,104,110,102,98.9,111
CCCCCOC(=O)Nc1nc(=O)n([C@@H]2O[C@H](C)[C@@H](O)[C@H]2O)cc1F [Capecitabine] (10 nM),86.9,93.2,99.6,99.5,100,99.6,98.1,91.9,96.4,107,97.4,99.6,98.8,105,96.9,103,98.7,102,110
CC(C)C[C@H](NC(=O)[C@H](CCc1ccccc1)NC(=O)CN1CCOCC1)C(=O)N[C@@H](Cc1ccccc1)C(=O)N[C@@H](CC(C)C)C(=O)[C@@]1(C)CO1 [Carfilzomib] (1 nM),108,99.5,87.7,107,108,108,100,106,105,101,105,115,101,115,106,112,109,105,108
